Measurements reported in patent US6147097A, “Imidazole derivatives as anti-HIV agents” (Shionogi & Co., Ltd., priority 1994, dated 2000).
Values after ≈ are worked out from the molar mass of the structure shown. Where two headings read alike, the source gives them in different places.

How the values were obtained:
HIV (HTLV-IIIB strain) = experiment: microbe, parasite or virus in culture; format: cell-based; settings: Human immunodeficiency virus 1, IIIB, MT4, 120 h
Outline: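 MT-4 cells (3.5×10^4 per well) were infected with HIV at 60 pfu per well in the presence of diluted compound and incubated for 5 days at 37° C. Surviving cells were then measured by MTT reduction, with the formazan dissolved in acidified isopropanol containing Triton X-100.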

[1] = cytotoxicity in MT-4 cells (MTT, culture medium in place of HIV); format: cell-based; settings: human
Outline: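 MT-4 cells (3.5×10^4 per well) exposed to diluted compound with culture medium added instead of HIV, 5 days at 37° C in CO2. MTT added for 1 h, formazan dissolved in Triton X-100/acidified isopropanol. OD read at 560 nm (690 nm reference) and compared with control.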

[2] = biological target: T1, purified recombinant HIV-1 reverse transcriptase (Human immunodeficiency virus type 1 group M subtype B, UniProt P04585); experiment: reverse transcriptase inhibition, poly(rA)/(dT) template primer, [3H]dTTP uptake; format: biochemical
T1 construct: purified recombinant HIV-1 reverse transcriptase; made in house; host or cells: Escherichia coli
Outline: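 Inhibition reported as percent reduction of [3H]dTTP incorporation relative to solvent control, after 1 h at 37 °C at pH 8.3. Recombinant RT from E. coli, poly(rA) template with oligo(dT) primer, 4 μM unlabeled dTTP as substrate; product collected on DEAE filter mats.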

[3] = MT-4 cells, 60 pfu HIV per well, 37° C., 5 days, MTT, Tables 1 and 2, read-out: EC50
[4] = MT-4 cells, no virus, 37° C., 5 days, MTT, Table 3, read-out: CC50

## CC(C)c1nc(CNS(C)(=O)=O)n(C)c1Sc1cc(Cl)cc(Cl)c1 [Compound I-87, 5-(3,5-dichlorophenylthio)-4-isopropyl-2-methanesulfonylaminomethyl-1-methyl-1H-imidazole]
HIV (HTLV-IIIB strain); [3]
  EC50: 0.5 to 1 µg/mL (≈ 1.22 to 2.45 µM)
[1]; [4]
  CC50 at 120 h: 10 to 100 µg/mL (≈ 24.5 to 245 µM)
[2]
  IC50: > 245 µM

## CC(C)c1nc(CO)n(CCCc2ccccn2)c1Sc1cc(Cl)cc(Cl)c1 [Compound 112b, 5-(3,5-dichlorophenylthio)-4-isopropyl-2-hydroxymethyl-1-(3-(2-pyridyl)propyl)-1H-imidazole]
HIV (HTLV-IIIB strain); [3]
  EC50: < 0.008 µg/mL
[1]; mt-4 cells
  CC50 at 120 h: 6.3 to 12.5 µg/mL (≈ 14.4 to 28.6 µM)
[2]
  IC50: 5.96 µM

## CCn1c(COC(N)=O)nc(C(C)C)c1Sc1cc(Cl)cc(Cl)c1 [Compound I-52, 2-carbamoyloxymethyl-5-(3,5-dichlorophenylthio)-1-ethyl-4-isopropyl-1H-imidazole]
HIV (HTLV-IIIB strain)
  EC50: 0.003 µg/mL (≈ 0.00773 µM)
[1]; [4]
  CC50 at 120 h: 10 µg/mL (≈ 25.8 µM)
[2]
  IC50: 0.464 µM

## CC(C)c1nc(COCCOC(N)=O)n(C)c1Sc1cc(Cl)cc(Cl)c1 [Compound I-61, (2-carbamoyloxy)ethoxymethyl-5-(3,5-dichlorophenylthio)-4-isopropyl-1-methyl-1H-imidazole]
HIV (HTLV-IIIB strain); [3]
  EC50: 0.5 µg/mL (≈ 1.2 µM)
[1]; [4]
  CC50 at 120 h: 6.3 to 12.5 µg/mL (≈ 15.1 to 29.9 µM)
[2]
  IC50: 185 µM

## CC(C)c1nc(CO)n(CCc2ccccn2)c1Sc1cc(Cl)cc(Cl)c1 [Compound 112a, 5-(3,5-dichlorophenylthio)-4-isopropyl-2-hydroxymethyl-1-(2-(2-pyridyl)ethyl)-1H-imidazole]
HIV (HTLV-IIIB strain); [3]
  EC50: 0.008 µg/mL (≈ 0.0189 µM)
[1]; mt-4 cells
  CC50 at 120 h: 6.3 µg/mL (≈ 14.9 µM)
[2]
  IC50: 2.27 µM

## CC(C)c1nc(CO)n(CCO)c1Sc1cc(Cl)cc(Cl)c1 [Compound 119b, 2-(5-(3,5-dichlorophenyl-thio)-2-hydroxymethyl-4-isopropyl-1H-imidazol-1-yl)ethanol]
HIV (HTLV-IIIB strain); [3]
  EC50: < 0.008 µg/mL
[1]; mt-4 cells
  CC50 at 120 h: 12.5 to 25 µg/mL (≈ 34.6 to 69.2 µM)
[2]
  IC50: 1.72 µM

## CCn1c(COC(N)=O)nc(C(C)C)c1Sc1cccc(Cl)c1 [Compound I-53, 2-carbamoyloxymethyl-5-(3-chlorophenylthio)-1-ethyl-4-isopropyl-1H-imidazole]
HIV (HTLV-IIIB strain)
  EC50: 0.004 to 0.008 µg/mL (≈ 0.0113 to 0.0226 µM)
[1]; [4]
  CC50 at 120 h: 10 to 100 µg/mL (≈ 28.3 to 283 µM)
[2]
  IC50: 0.593 µM

## CC(C)c1nc(CCO)n(Cc2cccc([N+](=O)[O-])c2)c1Sc1cc(Cl)cc(Cl)c1 [Compound 126b, 5-(3,5-Dichlorophenylthio)-2-(2-hydroxyethyl)-4-isopropyl-1-m-nitrobenzyl-1H-imidazole]
HIV (HTLV-IIIB strain); [3]
  EC50: 0.008 to 0.016 µg/mL (≈ 0.0172 to 0.0343 µM)
[1]; mt-4 cells
  CC50 at 120 h: 3.1 to 6.3 µg/mL (≈ 6.65 to 13.5 µM)
[2]
  IC50: 8.58 µM

## CC(C)c1nc(COC(N)=O)n(C)c1Sc1cc(Cl)cc(Cl)c1 [Compound I-41, 2-carbamoyloxymethyl-5-(3,5-dichlorophenylthio)-4-isopropyl-1-methyl-1H-imidazole]
HIV (HTLV-IIIB strain)
  EC50: 0.016 µg/mL (≈ 0.0427 µM)
[1]; mt-4 cells
  CC50 at 120 h: 8.5 µg/mL (≈ 22.7 µM)
[2]
  IC50: 1.34 µM

## CCn1c(CCOCc2ccccc2)nc(C(C)C)c1Sc1cc(Cl)cc(Cl)c1 [Compound 122a]
HIV (HTLV-IIIB strain); [3]
  EC50: 0.13 µg/mL (≈ 0.289 µM)
[1]; mt-4 cells
  CC50 at 120 h: 6.3 µg/mL (≈ 14 µM)
[2]
  IC50: 42.3 µM

## CC(C)c1nc(CCOC(N)=O)n(Cc2ccc([N+](=O)[O-])cc2)c1Sc1cc(Cl)cc(Cl)c1 [Compound 128a, 2-(2-carbamoyloxyethyl)-5-(3,5-dichlorophenylthio)-4-isopropyl-1-(p-nitrobenzyl)-1H-imidazole]
HIV (HTLV-IIIB strain); [3]
  EC50: 3.1 to 6.3 µg/mL (≈ 6.09 to 12.4 µM)
[1]; mt-4 cells
  CC50 at 120 h: 6.3 µg/mL (≈ 12.4 µM)
[2]
  IC50: 104 µM

## Cc1cc(C)cc(Sc2c(C(C)C)nc(C=O)n2C)c1 [Compound I-6, 5-(3,5-dimethylphenylthio)-4-isopropyl-1-methyl-1H-imidazole-2-carbaldehyde]
HIV (HTLV-IIIB strain); [3]
  EC50: 0.03 to 0.06 µg/mL (≈ 0.104 to 0.208 µM)
[1]; [4]
  CC50 at 120 h: 10 µg/mL (≈ 34.7 µM)
[2]
  IC50: 127 µM

## CC(C)c1nc(CN)n(C)c1Sc1ccccc1 [Compound I-74, 2-aminomethyl-4-isopropyl-1-methyl-5-phenylthioimidazole]
HIV (HTLV-IIIB strain); [3]
  EC50: 0.25 µg/mL (≈ 0.956 µM)
[1]; [4]
  CC50 at 120 h: 12.5 to 25 µg/mL (≈ 47.8 to 95.6 µM)
[2]
  IC50: 21.8 µM

## CC(C)c1nc(CNC(N)=O)n(C)c1Sc1cc(Cl)cc(Cl)c1 [Compound I-90, 5-(3,5-dichlorophenylthio)-4-isopropyl-1-methyl-2-ureidomethyl-1H-imidazole]
HIV (HTLV-IIIB strain); [3]
  EC50: 0.13 µg/mL (≈ 0.348 µM)
[1]; [4]
  CC50 at 120 h: 10 to 100 µg/mL (≈ 26.8 to 268 µM)
[2]
  IC50: 6.7 µM

## CNCc1nc(C(C)C)c(Sc2cc(Cl)cc(Cl)c2)n1C [Compound I-85, 5-(3,5-dichlorophenylthio)-4-isopropyl-1-methyl-2-methylaminomethyl-1H-imidazole]
HIV (HTLV-IIIB strain); [3]
  EC50: 0.13 µg/mL (≈ 0.378 µM)
[1]; [4]
  CC50 at 120 h: 1 to 10 µg/mL (≈ 2.9 to 29 µM)
[2]
  IC50: 7.55 µM

## Cc1ncccc1Cn1c(COC(N)=O)nc(C(C)C)c1Sc1cc(Cl)cc(Cl)c1 [Compound I-133, 2-carbamoyloxymethyl-5-(3,5-dichlorophenylthio)-4-isopropyl-1-(2-methylpyridin-3-ylmethyl)-1H-imidazole]
HIV (HTLV-IIIB strain); [3]
  EC50: 0.008 µg/mL (≈ 0.0172 µM)
[1]; mt-4 cells
  CC50 at 120 h: 12.5 µg/mL (≈ 26.9 µM)
[2]
  IC50: 72.2 µM

## CC(C)c1nc(CCO)n(Cc2ccc([N+](=O)[O-])cc2)c1Sc1cc(Cl)cc(Cl)c1 [Compound 126a, 5-(3,5-dichlorophenylthio)-2-(2-hydroxyethyl)-4-isopropyl-1-p-nitrobenzyl-1H-imidazole]
HIV (HTLV-IIIB strain); [3]
  EC50: 0.008 µg/mL (≈ 0.0172 µM)
[1]; mt-4 cells
  CC50 at 120 h: 6.3 µg/mL (≈ 13.5 µM)
[2]
  IC50: 2.59 µM

## CC(C)c1nc(CCCOC(N)=O)n(Cc2ccncc2)c1Sc1cc(Cl)cc(Cl)c1 [Compound I-150, 2-(3-carbamoyloxypropyl)-5-(3,5-dichlorophenylthio)-4-isopropyl-1-(pyridin-4-yl)methyl-1H-imidazole]
HIV (HTLV-IIIB strain); [3]
  EC50: 0.008 µg/mL (≈ 0.0167 µM)
[1]; mt-4 cells
  CC50 at 120 h: 6.3 to 12.5 µg/mL (≈ 13.1 to 26.1 µM)
[2]
  IC50: 1.88 µM

## CNC(=S)OCc1nc(C(C)C)c(Sc2cc(Cl)cc(Cl)c2)n1C [Compound I-44, 5-(3,5-dichlorophenylthio)-4-isopropyl-1-methyl-2-(N-methylthiocarbamoyl)oxymethyl-1H-imidazole]
HIV (HTLV-IIIB strain); [3]
  EC50: 1 µg/mL (≈ 2.47 µM)
[1]; [4]
  CC50 at 120 h: 1 to 10 µg/mL (≈ 2.47 to 24.7 µM)
[2]
  IC50: 107 µM

## CC(C)c1nc(CCCOC(N)=O)n(C)c1Sc1cc(Cl)cc(Cl)c1 [Compound I-148, 2-(3-carbamoyloxypropyl)-5-(3,5-dichlorophenylthio)-4-isopropyl-1-methyl-1H-imidazole]
HIV (HTLV-IIIB strain); [3]
  EC50: 0.005 to 0.01 µg/mL (≈ 0.0124 to 0.0249 µM)
[1]; mt-4 cells
  CC50 at 120 h: 6.3 to 12.5 µg/mL (≈ 15.7 to 31.1 µM)
[2]
  IC50: 0.895 µM

## CC(C)c1nc(CCOC(N)=O)n(Cc2ccncc2)c1Sc1cc(Cl)cc(Cl)c1 [Compound I-138, 2-(2-carbamoyloxyethyl)-5-(3,5-dichlorophenylthio)-4-isopropyl-1-(pyridin-4-yl)methyl-1H-imidazole]
HIV (HTLV-IIIB strain); [3]
  EC50: 0.008 µg/mL (≈ 0.0172 µM)
[1]; mt-4 cells
  CC50 at 120 h: 12.5 µg/mL (≈ 26.9 µM)
[2]
  IC50: 3.22 µM

## CC(=O)OCc1nc(C(C)C)c(Sc2cc(Cl)cc(Cl)c2)n1C [Compound I-40, [5-(3,5-dichlorophenylthio)-4-isopropyl-1-methyl-1H-imidazol-2-yl]methyl acetate]
HIV (HTLV-IIIB strain); [3]
  EC50: 0.016 µg/mL
[1]; [4]
  CC50 at 120 h: 12.5 to 25 µg/mL
[2]
  IC50: 28.7 µM

## CCn1c(CO)nc(C(C)C)c1Sc1cccc([N+](=O)[O-])c1 [Compound I-23, [1-ethyl-4-isopropyl-5-(3-nitrophenylthio)-1H-imidazol-2-yl]methanol]
HIV (HTLV-IIIB strain); [3]
  EC50: 0.004 µg/mL (≈ 0.0124 µM)
[1]; [4]
  CC50 at 120 h: 25 µg/mL (≈ 77.8 µM)
[2]
  IC50: 0.996 µM

## CC(C)c1nc(CO)n(C)c1Sc1cccc([N+](=O)[O-])c1 [Compound I-14, [4-isopropyl-1-methyl-5-(3-nitrophenylthio)-1H-imidazol-2-yl]methanol]
HIV (HTLV-IIIB strain); [3]
  EC50: 0.03 µg/mL (≈ 0.0976 µM)
[1]; [4]
  CC50 at 120 h: 12.5 to 25 µg/mL (≈ 40.7 to 81.3 µM)
[2]
  IC50: 4.23 µM

## Cc1ncccc1Cn1c(CO)nc(C(C)C)c1Sc1cc(Cl)cc(Cl)c1 [Compound 119a, 5-(3,5-dichlorophenylthio)-2-hydroxymethyl-4-isopropyl-1-(2-methylpyridin-3-ylmethyl)-1H-imidazole]
HIV (HTLV-IIIB strain); [3]
  EC50: < 0.008 µg/mL
[1]; mt-4 cells
  CC50 at 120 h: 12.5 µg/mL (≈ 29.6 µM)
[2]
  IC50: 14.7 µM
